How the values were obtained:
[1] = molecular target: KRAS G12D (Homo sapiens (Human), UniProt P01116+P62937, G12D); assay: Ras-Raf (BRAF RBD) disruption / FRET / MOA assay, KRAS G12D; type: biochemical; conditions: Ras-Raf disruption/FRET/MOA assay; class symbols; read-out: KRAS G12D FRET data IC50
In short: (§1)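 Ternary complex formation (Ras–compound–cyclophilin A) displacing BRAF RBD, monitored by TR-FRET. Three hours at 25° C with compound (top 30 μM final), then 1.5 h with the labelled antibodies. Lower ratio than DMSO indicates disruption; IC50 reported.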

[2] = molecular target: KRAS G12S (Homo sapiens (Human), UniProt P01116+P62937, G12S); assay: Ras-Raf (BRAF RBD) disruption / FRET / MOA assay, KRAS G12S; type: biochemical; conditions: Ras-Raf disruption/FRET/MOA assay; class symbols; read-out: KRAS G12S FRET data IC50
In short: as §1

[3] = tested on: NCI-H358 (K-Ras G12C); assay: CellTiter-Glo cell viability assay, NCI-H358; type: cell-based, human; conditions: Homo sapiens, NCI-H358, 120 h, NCI-H358, 5-day treatment; class symbols; read-out: Additional H358 Cell Viability assay data (K-Ras G12C, IC50)
In short: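 Four-parameter logistic fits were applied to luminescence data normalized against DMSO-treated wells. Readings were taken on day 5 following direct compound addition, after roughly 30 minutes at room temperature.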

[4] = tested on: NCI-H358 cells (K-Ras G12C); assay: Potency assay: pERK in NCI-H358 cells; type: cell-based, human; conditions: Homo sapiens, NCI-H358; H358 KRAS G12C; read-out: pERK EC50
In short: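 Compounds are dosed as ten 3-fold dilutions from a 10 mM DMSO stock, in duplicate, and left on cells for 4 h at 37 °C, 5% CO2. Phospho-ERK1/2 is then quantified by AlphaLISA SureFire Ultra or In-Cell Western, and IC50 is derived from a 4-parameter sigmoid against log concentration.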

[5] = molecular target: KRAS WT (Homo sapiens (Human), UniProt P01116+P62937); assay: Ras-Raf (BRAF RBD) disruption / FRET / MOA assay, KRAS WT; type: biochemical; conditions: read-out: IC50* KRAS WT FRET data
In short: as §1

Sequence of KRAS G12D (P01116-2 other isoform, or with tags, fused parts or gaps G12D): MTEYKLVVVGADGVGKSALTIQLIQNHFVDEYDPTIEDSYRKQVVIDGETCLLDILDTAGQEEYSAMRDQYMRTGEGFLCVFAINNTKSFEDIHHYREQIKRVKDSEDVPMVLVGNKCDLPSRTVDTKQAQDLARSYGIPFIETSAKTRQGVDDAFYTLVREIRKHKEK
Sequence of KRAS G12D (P62937 whole entry): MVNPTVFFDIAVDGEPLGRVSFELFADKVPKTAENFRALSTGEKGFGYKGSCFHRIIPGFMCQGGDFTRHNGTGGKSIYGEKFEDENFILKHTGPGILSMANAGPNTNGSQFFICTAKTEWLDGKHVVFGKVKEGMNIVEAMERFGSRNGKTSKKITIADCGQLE
Sequence of KRAS WT (P01116-2 other isoform, or with tags, fused parts or gaps): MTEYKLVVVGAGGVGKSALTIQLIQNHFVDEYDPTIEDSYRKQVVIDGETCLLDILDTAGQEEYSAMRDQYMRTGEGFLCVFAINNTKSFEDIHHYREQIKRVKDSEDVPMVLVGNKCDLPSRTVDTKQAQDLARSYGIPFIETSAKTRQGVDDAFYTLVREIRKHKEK
Sequence of KRAS WT (P62937 whole entry): as the sequence (P62937 whole entry) above
Sequence of KRAS G12S (P01116-2 other isoform, or with tags, fused parts or gaps G12S): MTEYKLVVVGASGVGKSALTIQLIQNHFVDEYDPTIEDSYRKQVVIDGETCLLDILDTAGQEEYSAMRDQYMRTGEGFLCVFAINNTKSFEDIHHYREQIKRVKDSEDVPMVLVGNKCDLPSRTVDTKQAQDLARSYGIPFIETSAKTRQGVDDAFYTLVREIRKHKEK
Sequence of KRAS G12S (P62937 whole entry): as the sequence (P62937 whole entry) above

| SMILES | IC50 [1] | IC50 [2] | IC50 [3] | EC50 [4] | IC50 [5] |
| --- | --- | --- | --- | --- | --- |
| C=CC(=O)Nc1ccc(C(=O)N(C)[C@H](C(=O)N[C@H]2Cc3cc(O)cc(c3)-c3ccc4c(c3)c(c(-c3cccnc3[C@H](C)OC)n4CC)CC(C)(C)COC(=O)[C@@H]3CCCN(N3)C2=O)C(C)C)nc1 (atropisomer, axis not shown) [Example A252] | 1 to 10 µM | 0.1 to 1 µM | 0.01 to 0.1 µM | < 5 µM | 0.1 to 1 µM |
| C=CC(=O)N1CCN(C(=O)N(C)[C@H](C(=O)N[C@H]2Cc3cc(O)cc(c3)-c3ccc4c(c3)c(c(-c3cccnc3[C@H](C)OC)n4CC)CC(C)(C)COC(=O)[C@@H]3CCCN(N3)C2=O)C(C)C)CC1 (atropisomer, axis not shown) [Example A262] | 0.1 to 1 µM | 0.01 to 0.1 µM | 0.01 to 0.1 µM | < 5 µM | 0.01 to 0.1 µM |
| C=CS(=O)(=O)N1CC2(CCN([C@H](C(=O)N[C@H]3Cc4cc(O)cc(c4)-c4ccc5c(c4)c(c(-c4cccnc4[C@H](C)OC)n5CC)CC(C)(C)COC(=O)[C@@H]4CCCN(N4)C3=O)C(C)C)C2=O)C1 (atropisomer, axis not shown) [Example A297] | 1 to 10 µM | 0.1 to 1 µM | 0.01 to 0.1 µM | < 5 µM | 0.01 to 0.1 µM |
| C=CC(=O)N1CC[C@H](C(=O)N(C)[C@H](C(=O)N[C@H]2Cc3cccc(c3)-c3ccc4c(c3)c(c(-c3cccnc3[C@H](C)OC)n4CC(F)(F)F)CC(C)(C)COC(=O)[C@@H]3CCCN(N3)C2=O)C(C)C)C1 (atropisomer, axis not shown) [Example A332] | 1 to 10 µM | 1 to 10 µM | < 0.01 µM | < 5 µM | 1 to 10 µM |
| C=CC(=O)N1CC[C@H](C(=O)N(C)[C@H](C(=O)N[C@H]2Cc3cc(F)cc(c3)-c3ccc4c(c3)c(c(-c3cccnc3[C@H](C)OC)n4CC)CC(C)(C)COC(=O)[C@@H]3CCCN(N3)C2=O)C(C)C)C1 (atropisomer, axis not shown) [Example A342] | 1 to 10 µM | 1 to 10 µM | 0.01 to 0.1 µM | < 5 µM | 1 to 10 µM |
| CCn1c(-c2cccnc2[C@H](C)OC)c2c3cc(ccc31)-c1cccc(c1)C[C@H](NC(=O)[C@@H](COC1CN(C(=O)C#CC(C)(C)N3CCC3)C1)C(C)C)C(=O)N1CCC[C@H](N1)C(=O)OCC(C)(C)C2 (atropisomer, axis not shown) [Example A346] | > 10 µM | > 10 µM | < 0.01 µM | < 5 µM | > 10 µM |
| CO[C@@H](C)c1ncccc1-c1c2c3cc(ccc3n1CC(F)(F)F)-c1cc(F)cc(c1)C[C@H](NC(=O)[C@@H](COC1CN(C(=O)C#CC(C)(C)N(C)C)C1)C(C)C)C(=O)N1CCC[C@H](N1)C(=O)OCC(C)(C)C2 (atropisomer, axis not shown) [Example A348] | > 10 µM | 1 to 10 µM | < 0.01 µM | < 5 µM | 1 to 10 µM |
| CCn1c(-c2cccnc2[C@H](C)OC)c2c3cc(ccc31)-c1cccc(c1)C[C@H](NC(=O)[C@H](C(C)C)N1CO[C@]3(CCN(C(=O)C#CC(C)(C)N4CCC4)C3)C1=O)C(=O)N1CCC[C@H](N1)C(=O)OCC(C)(C)C2 (atropisomer, axis not shown) [Example A351] | 1 to 10 µM | 0.1 to 1 µM | < 0.01 µM | < 5 µM | 0.1 to 1 µM |
| C=CC(=O)N1CC[C@@]2(CCN(C(=O)N(C)[C@H](C(=O)N[C@H]3Cc4nc(cs4)-c4ccc5c(c4)c(c(-c4cccnc4[C@H](C)OC)n5CC)CC(C)(C)COC(=O)[C@@H]4CCCN(N4)C3=O)C(C)C)C2)C1 (atropisomer, axis not shown) [Example A367] | 0.1 to 1 µM | 0.01 to 0.1 µM | 0.01 to 0.1 µM | < 5 µM | 0.01 to 0.1 µM |
| C=CC(=O)N(C)CC1CN(C(=O)N(C)[C@H](C(=O)N[C@H]2Cc3nc(cs3)-c3ccc4c(c3)c(c(-c3cccnc3[C@H](C)OC)n4CC)CC(C)(C)COC(=O)[C@@H]3CCCN(N3)C2=O)C(C)C)C1 (atropisomer, axis not shown) [Example A368] | 0.1 to 1 µM | 0.1 to 1 µM | < 0.01 µM | < 5 µM | 0.1 to 1 µM |
| C=CC(=O)N1CC[C@]2(C1)OCN([C@H](C(=O)N[C@H]1Cc3cccc(c3)-c3ccc4c(c3)c(c(-c3cccnc3[C@H](C)OC)n4CC)CC(C)(C)COC(=O)[C@@H]3CCCN(N3)C1=O)C(C)C)C2=O (atropisomer, axis not shown) [Example A371] | > 10 µM | 1 to 10 µM | < 0.01 µM | < 5 µM | 1 to 10 µM |
| CO[C@@H](C)c1ncccc1-c1c2c3cc(ccc3n1CC(F)(F)F)N1CCO[C@@H](C[C@H](NC(=O)[C@@H](COC3CN(C(=O)C#CC(C)(C)N(C)C)C3)C(C)C)C(=O)N3CCC[C@H](N3)C(=O)OCC(C)(C)C2)C1 (atropisomer, axis not shown) [Example A375, (2R)-2-(((1-(4-(dimethylamino)-4-methylpent-2-ynoyl)azetidin-3-yl)oxy)methyl)-N-((2^2S,6^3S,4S)-1^2-(2-((S)-1-methoxyethyl)pyridin-3-yl)-10,10-dimethyl-5,7-dioxo-1^1-(2,2,2-trifluoroethyl)-6^1,6^2,6^3,6^4,6^5,6^6-hexahydro-1^1H-8-oxa-2(4,2)-morpholina-1(5,3)-indola-6(1,3)-pyridazinacycloundecaphane-4-yl)-3-methylbutanamide] | > 10 µM | > 10 µM | < 0.01 µM | < 5 µM | 1 to 10 µM |
| C=CC(=O)N(C)[C@@H]1CCCN(C(=O)N(C)[C@H](C(=O)N[C@H]2Cc3nc(cs3)-c3ccc4c(c3)c(c(-c3cccnc3[C@H](C)OC)n4CC)CC(C)(C)COC(=O)[C@@H]3CCCN(N3)C2=O)C(C)C)C1 (atropisomer, axis not shown) [Example A382] | 0.1 to 1 µM | 0.01 to 0.1 µM | < 0.01 µM | < 5 µM | 0.01 to 0.1 µM |
| C=CC(=O)N(C)C1CCN(C(=O)N(C)[C@H](C(=O)N[C@H]2Cc3nc(cs3)-c3ccc4c(c3)c(c(-c3cccnc3[C@H](C)OC)n4CC)CC(C)(C)COC(=O)[C@@H]3CCCN(N3)C2=O)C(C)C)CC1 (atropisomer, axis not shown) [Example A383] | 0.1 to 1 µM | 0.01 to 0.1 µM | < 0.01 µM | < 5 µM | 0.01 to 0.1 µM |
| C=CC(=O)N1C[C@@H](C)N(C(=O)N(C)[C@H](C(=O)N[C@H]2Cc3nc(cs3)-c3ccc4c(c3)c(c(-c3cccnc3[C@H](C)OC)n4CC)CC(C)(C)COC(=O)[C@@H]3CCCN(N3)C2=O)C(C)C)[C@H](C)C1 (atropisomer, axis not shown) [Example A388] | 0.01 to 0.1 µM | 0.01 to 0.1 µM | < 0.01 µM | < 5 µM | < 0.01 µM |
| C=CC(=O)N1C[C@@H]2CN(C(=O)N(C)[C@H](C(=O)N[C@H]3Cc4nc(cs4)-c4ccc5c(c4)c(c(-c4cccnc4[C@H](C)OC)n5CC)CC(C)(C)COC(=O)[C@@H]4CCCN(N4)C3=O)C(C)C)C[C@@H]2C1 (atropisomer, axis not shown) [Example A389] | 0.1 to 1 µM | 0.01 to 0.1 µM | < 0.01 µM | < 5 µM | 0.01 to 0.1 µM |

Reference: patent publication US11566007B2, “Ras inhibitors” (Revolution Medicines, Inc., priority 2019, dated 2023)
